Assay results as given in patent US8088808B2, “Substituted N-phenyl-bipyrrolidine carboxamides and therapeutic use thereof” (Sanofi, priority 2007, dated 2012).
Structures can show the parent of a compound that is named as a salt.

How the values were obtained:
[1] = biological target: rhesus (Macaca Mulatta) H3 receptor (Macaca mulatta, UniProt Q865E1); assay: Rhesus H3 radioligand binding assay ([3H]-Methylhistamine displacement, WGA SPA beads); design: species or system rhesus monkey (Macaca Mulatta)
rhesus (Macaca Mulatta) H3 receptor, sequence (Q865E1 1-445): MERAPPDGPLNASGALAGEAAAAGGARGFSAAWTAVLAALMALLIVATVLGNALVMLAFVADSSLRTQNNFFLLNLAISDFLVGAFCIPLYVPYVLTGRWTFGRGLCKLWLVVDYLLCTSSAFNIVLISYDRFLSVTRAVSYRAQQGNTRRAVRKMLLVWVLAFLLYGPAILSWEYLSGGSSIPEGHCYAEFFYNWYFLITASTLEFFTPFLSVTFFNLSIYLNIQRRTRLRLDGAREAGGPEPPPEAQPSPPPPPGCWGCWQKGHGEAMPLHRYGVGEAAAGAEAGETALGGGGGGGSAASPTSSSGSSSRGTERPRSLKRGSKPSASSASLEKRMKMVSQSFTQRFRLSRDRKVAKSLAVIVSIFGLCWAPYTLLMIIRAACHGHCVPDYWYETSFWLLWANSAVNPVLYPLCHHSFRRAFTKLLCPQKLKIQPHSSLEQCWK
Method: (§1) (Genbank #AY231164). Stably transfected cultures were amplified in tissue culture flasks by standard tissue culture methods and induced to express rhesus H3 by exposure to 500 ng/ml tetracycline (Cellgro) for 24 hours. After induction, cells were dissociated from flasks utilizing Cell Stripper (Cellgro). Cells were centrifuged (1K×g, 5 min) and pellet frozen in an ethanol-dry ice bath to disrupt cell membranes. Frozen cell pellet was re-suspended in 5 mM HEPES (pH 7.4, Invitrogen) at 10 ml/1000 cm2 of harvested cells. The cell suspension was drawn through an 18 gauge needle (2-3×) followed by a 23 gauge needle (2-3×) to further disrupt cell membranes. The cell suspension was centrifuged (40K×g, 30 min). Cell membrane pellet was re-suspended in 5 mM HEPES (pH 7.4, Invitrogen) at a final protein concentration of 10 mg/ml. Rhesus H3 membranes were stored under liquid nitrogen prior to use in [3H]-Methylhistamine and GTPγS radioligand binding assays.
Rhesus H3 radioligand binding assay was performed using rhesus H3 receptor membranes (prepared as described above), [3H]-Methylhistamine (Perkin Elmer) and WGA SPA beads (wheat germ agglutinin scintillation proximity assay) beads (Amersham). The assay was performed in 96-well Opti-Plates (Packard). Each reaction contained 50 μl rhesus H3 membranes (20-30 μg total protein), 50 μl WGA SPA beads (0.1 μg) and 50 μl of 83 Ci/mmol [^3H]-Methylhistamine (final concentration 2 nM) and 50 μl of tested compound. The compounds of this invention and/or vehicle were diluted with binding buffer from 10 mM DMSO stocks. Assay plates were sealed with TopSeal (Perkin Elmer) and mixed on shaker (25° C., 1 hour). Assay plates were read on TopCount scintillation counter (Packard). Results were analyzed by Hill transformation and Ki values were determined by Cheng-Prusoff equation.

rhesus H3 = assay: GTPγS radioligand binding assay (inhibition of rhesus H3 constitutive functional activity in cell membranes); type: biochemical, rhesus monkey (Macaca Mulatta); conditions: Table 1; relative to basal level
Method: as §1, with “Rhesus H3 membranes were prepared from the Flp-In T-REx 293 Cell Line (Invitrogen) stably transfected with pcDNA5/FRT/TO (Invitrogen) containing the rhesus monkey (Macaca Mulatta) 445 amino acid H3 receptor. (Genbank” for “(Genbank”

MCH receptor = MCH receptor (Homo sapiens, UniProt Q99705); assay: MCH receptor [125J]-ligand binding filtration assay; conditions: 10 μM test compound; percent inhibition of ligand binding
MCH receptor, sequence (Q99705 whole entry): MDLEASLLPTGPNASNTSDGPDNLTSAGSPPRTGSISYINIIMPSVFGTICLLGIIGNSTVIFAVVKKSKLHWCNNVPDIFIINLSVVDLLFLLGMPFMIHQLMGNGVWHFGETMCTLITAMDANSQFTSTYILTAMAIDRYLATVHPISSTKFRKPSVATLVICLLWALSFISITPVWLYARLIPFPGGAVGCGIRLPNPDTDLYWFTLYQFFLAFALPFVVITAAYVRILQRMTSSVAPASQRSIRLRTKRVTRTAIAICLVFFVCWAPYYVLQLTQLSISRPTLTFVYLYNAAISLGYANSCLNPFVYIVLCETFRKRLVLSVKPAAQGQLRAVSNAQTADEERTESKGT
Method: The activity of the compounds of this invention at the MCH receptor site, if any was measured by the procedures as set forth below. • Test Compounds The compounds of this invention were stored in a 96-well microtiter plates (1 μL, 10 mM, 100% DMSO). Each of the test sample was diluted with 249 μL of 100% DMSO (dilution 1:250). […] Blank: Assay buffer containing 0.4% DMSO were transferred to the dilution microtiter plates for blanks • Assay Procedure: The filter plates with […] of 0.5% PEI-solution/well were incubated for 2 hours at room temperature. PEI was removed by vacuum filtration just before pipetting (Univac Polyfiltronic/Whatman). The solution of the compound as prepared above (50 μL), or MCH ([…]) or Puffer/DMSO (positive control) were added to 96-well round bottom microtiter plate. Then 50 μl of [^125J]-ligand solution was added followed by 100 μl of membrane suspension. The plates were closed with the lids, and incubated for 60 min. at 25° C. The samples were transferred to GF/B filter plate. The reaction mixture was removed by vacuum filtration, washed 4× with 300 μL ice-cold washing buffer and the washing solution was removed by vacuum filtration. The rubber layer at the bottom of the plate was then removed and the filters were dried over night at room temperature. 25 μL of scintillation cocktail was added and the plates were sealed and, plate frames were added and incubated for 1 hour at room temperature. The radioactivity was then measured, settings ^125J standard, 30 sec./well.

[2] = Table 1, [3H]-Methylhistamine 2 nM, Cheng-Prusoff
[3] = Table 2, procedure of Example 42

SMILES	Ki [1, 2]	Ki [1, 3]	inhibition at 10 µM (MCH receptor)	Inverse Agonism: % inhibition of Basal GTPγS binding in Rhesus H3 (rhesus H3)
CC1CCCN1C1CCN(c2ccc(NC(=O)CC3CCCC3)cc2)C1 (stereo not shown) [Example 36, 2-Cyclopentyl-N-[4-(2-methyl-[1,3′]bipyrrolidinyl-1′-yl)-phenyl]-acetamide trifluoroacetate]	3.14 nM	3.1 nM	0.7%	−33%
Cc1cc(N2CC[C@H](N3CCC[C@@H]3C)C2)ccc1NC(=O)c1ccoc1 [Example 6, Furan-3-carboxylic acid [2-methyl-4-(2S-methyl-[1,3′S]bipyrrolidinyl-1′-yl)-phenyl]-amide trifluoro-acetate]	1.8 nM	1.8 nM	-6.9%	−17%
Cc1cc(C(=O)Nc2ccc(N3CCC(N4CCCC4C)C3)cc2)n[nH]1 (stereo not shown) [Example 31, 5-Methyl-1H-pyrazole-3-carboxylic acid [4-(2-methyl-[1,3′]bipyrrolidinyl-1′-yl)-phenyl]-amide trifluoroacetate]	–	44.5 nM	30.5%	–
Cc1cc(N2CC[C@H](N3CCC[C@@H]3C)C2)ccc1NC(=O)c1cc(C)n(C)n1 [Example 15, 1,5-Dimethyl-1H-pyrazole-3-carboxylic acid [2-methyl-4-(2(2S)-methyl-[1,3′(3′S)]bipyrrolidinyl-1′-yl)-phenyl]-amide hydrochloride]	–	10.8 nM	10.3%	–
CC1CCCN1C1CCN(c2ccc(NC(=O)C3C(C)(C)C3(C)C)cc2)C1 (stereo not shown) [Example 25, 2,2,3,3-Tetramethyl-cyclopropanecarboxylic acid [4-(2-methyl-[1,3′]bipyrrolidinyl-1′-yl)-phenyl]-amide trifluoroacetate]	–	144 nM	15%	–
Cc1cc(NC(=O)CC2CCCC2)ccc1N1CCC(N2CCCC2C)C1 (stereo not shown) [Example 38, 2-Cyclopentyl-N-[3-methyl-4-(2-methyl-[1,3′]bipyrrolidinyl-1′-yl)-phenyl]-acetamide trifluoroacetate]	–	10.7 nM	3.7%	–
Cc1cc(N2CCC(N3CCCC3C)C2)ccc1NC(=O)CC1CCCC1 (stereo not shown) [Example 8, 2-Cyclopentyl-N-[2-methyl-4-(2-methyl-[1,3′]bipyrrolidinyl-1′-yl)-phenyl]-acetamide trifluoro-acetate]	–	8.4 nM	1.4%	–

Further molecules by falling Ki [1, 3], results first:

Ki [1, 2]	Ki [1, 3]	inhibition at 10 µM (MCH receptor)	SMILES	Inverse Agonism: % inhibition of Basal GTPγS binding in Rhesus H3 (rhesus H3)
–	307 nM	23.5%	Cc1cc(C(=O)Nc2ccc(N3CCC(N4CCCC4C)C3)cc2C(F)(F)F)n[nH]1 (stereo not shown) [Example 35, 5-Methyl-1H-pyrazole-3-carboxylic acid [4-(2-methyl-[1,3′]bipyrrolidinyl-1′-yl)-2-trifluoromethyl-phenyl]-amide trifluoroacetate]	–
–	126 nM	16.8%	Cc1cc(NC(=O)c2cn[nH]c2)ccc1N1CCC(N2CCCC2C)C1 (stereo not shown) [Example 34, 1H-Pyrazole-4-carboxylic acid [3-methyl-4-(2-methyl-[1,3′]bipyrrolidinyl-1′-yl)-phenyl]-amide trifluoroacetate]	–
–	30.9 nM	24.3%	Cc1cc(C(=O)Nc2ccc(N3CCC(N4CCCC4C)C3)cc2C)n[nH]1 (stereo not shown) [Example 20, 5-Methyl-1H-pyrazole-3-carboxylic acid [2-methyl-4-(2-methyl-[1,3′]bipyrrolidinyl-1′-yl)-phenyl]-amide trifluoroacetate]	–
–	24.7 nM	9.7%	Cc1cc(N2CCC(N3CCCC3C)C2)ccc1NC(=O)c1cn[nH]c1 (stereo not shown) [Example 33, 1H-Pyrazole-4-carboxylic acid [2-methyl-4-(2-methyl-[1,3′]bipyrrolidinyl-1′-yl)-phenyl]-amide trifluoroacetate]	–
–	22.1 nM	4.8%	CC1CCCN1C1CCN(c2ccc(NC(=O)c3cn[nH]c3)cc2)C1 (stereo not shown) [Example 13, 1H-Pyrazole-4-carboxylic acid [4-(2-methyl-[1,3′]bipyrrolidinyl-1′-yl)-phenyl]-amide trifluoro-acetate]	–
–	9.7 nM	-3.4%	CC1CCCN1C1CCN(c2ccc(NC(=O)C3CC3)cc2)C1 (stereo not shown) [Example 40, Cyclopropanecarboxylic acid [4-(2-methyl-[1,3′]bipyrrolidinyl-1′-yl)-phenyl]-amide trifluoroacetate]	–
–	4.7 nM	28.3%	Cc1cc(C(=O)Nc2ccc(N3CC[C@H](N4CCC[C@@H]4C)C3)cc2C)n[nH]1 [Example 14, 5-Methyl-1H-pyrazole-3-carboxylic acid [2-methyl-4-(2(2S)-methyl-[1,3′(3′S)]bipyrrolidinyl-1′-yl)-phenyl]-amide]	–
–	3.2 nM	5%	Cc1cc(NC(=O)c2c(C)noc2C)ccc1N1CCC(N2CCCC2C)C1 (stereo not shown) [Example 7, 3,5-Dimethyl-isoxazole-4-carboxylic acid [3-methyl-4-(2-methyl-[1,3′]bipyrrolidinyl-1′-yl)-phenyl]-amide trifluoro-acetate]	–
–	1.1 nM	3.1%	Cc1cc(C(=O)Nc2ccc(N3CC[C@H](N4CCC[C@@H]4C)C3)cc2C)on1 [Example 5, 3-Methyl-isoxazole-5-carboxylic acid [2-methyl-4-(2S-methyl-[1,3′ S]bipyrrolidinyl-1′-yl)-phenyl]-amide trifluoro-acetate]	–
–	1 nM	-1.6%	Cc1cc(N2CC[C@H](N3CCC[C@@H]3C)C2)ccc1NC(=O)C1CCOCC1 [Example 4, Tetrahydro-pyran-4-carboxylic acid [2-methyl-4-(2(2S)-methyl-[1,3′(3′S)]bipyrrolidinyl-1′-yl)-phenyl]-amide]	–
–	0.6 nM	-0.8%	Cc1cc(N2CC[C@H](N3CCC[C@@H]3C)C2)ccc1NC(=O)C1CC2CCC1C2 (stereo partly drawn) [Example 3, Bicyclo[2.2.1]heptane-2-carboxylic acid [2-methyl-4-(2S-methyl-[1,3′S]bipyrrolidinyl-1′-yl)-phenyl]-amide trifluoro acetate]	–
